One data set is described as follows: log P. In kind it is physicochemical.
Data set [1] deals with PC3. The data set is described as follows: Cytotoxicity, resazurin fluorescence, PC3. Format: cell-based. As to conditions: Homo sapiens, PC-3, 72 h, read-out: GI50 PC3, Table 5. Here is the method:
(§1) Exemplary compounds of the presently-disclosed subject matter were assessed for cytotoxicity (Table 5) in Ewing sarcoma (TC32) and non-Ewing (PC3 prostate cancer). […] Cells (1000-5000/well) were seeded in 96-well plates and allowed to attach and grow for 24 hr prior to adding compounds in half-log increments from 0.3 nM-10 μM. Cell viability was assessed after 72 hr continuous incubation with compounds using resazurin fluorescence. GI50 values were estimated using GraphPad Prism.
In general terms: Resazurin is reduced to fluorescent resorufin, in cell work by metabolically active cells.

The subject of another data set is TC32. The data set is described as follows: Cytotoxicity, resazurin fluorescence, TC32. The settings on record: Homo sapiens, TC-32, 72 h, read-out: GI50 TC32, Table 5. In kind it is cell-based. The protocol:
as §1

Data set [2] is described as follows: Clearance (CL) / pharmacokinetics. Format: in vivo, mice. As to conditions: for clearance: mouse, plasma, iv, Table 2. The protocol: Exemplary compounds of the presently-disclosed subject matter were assessed for activity, including clearance, potency, and selectivity. Results from studies are compiled in Tables 2-4.
Desirable clearance was identified at lower values of mL hr^−1kg^−1 (e.g., about ≤10 mL hr^−1 kg^−1), desirable potency was identified at lower values of IC50 (e.g., about ≤10 nM in TC32 cells), and desired selectivity was identified at higher ratios of IC50 in PC3/IC50 in TC32 (e.g. about >10).
Pharmacokinetics of exemplary compounds of the presently-disclosed subject matter were studied in mice following bolus IV dosing. Groups of three mice were administered the compound(s) and blood samples were collected via saphenous bleed. Plasma was separated by centrifugation and extracted to quantitate analytes by LC/MS/MS. Sample analysis followed upon the system meeting system suitability criteria customary for fit for purpose analytical methods. FIG. 1A includes data comparing YL-C09 to mithramycin (MTM) dosed separately. FIG. 1B includes data for YL-B171, YL-C110 and MTM dosed in cassette format.

Data set [3] deals with PC3. As to the kind of experiment: IC50 in PC3 cells. Format: cell-based. The settings on record: Homo sapiens, head prints PC2, text PC3.
The test system of a further data set is TC32 cells. As to the kind of experiment: Potency IC50 in TC32 cells and selectivity. In kind it is cell-based. As to conditions: Homo sapiens.
Setting [4] is: PC-3, read-out: IC50 PC2, Table 2.
The mark [5] stands for this setting: PC-3, read-out: IC50 PC2, Table 3.
Setting [6] is: PC-3, read-out: IC50 PC2, Table 4.
Where [7] appears, read: TC-32, Table 2, read-out: IC50 TC32.
The mark [8] stands for this setting: TC-32, Table 3, read-out: IC50 TC32.
The mark [9] stands for this setting: TC-32, Table 4, read-out: IC50 TC32.

Read-outs that look alike come from different tables or passages of the source.

The record followed here is patent US20260297121A1, “MITHRAMYCIN (MTM) 2’ OXIMES” (University of Kentucky Research Foundation, priority 2023, published 2026).

As usually defined, the logP is a log measure of how a compound divides between an organic and an aqueous phase. Read a low logP as lower lipophilicity. Usually GI50 stands for the concentration giving 50% growth inhibition. One may read the clearance as the rate of elimination divided by the concentration. Low readings indicate inefficient removal, high ones efficient removal. In general, IC50 refers to the midpoint of a concentration-inhibition curve.

As for `COC(C(=NOCCNC(=O)c1[nH]c2ccc(Cl)cc2c1-c1cccs1)C(O)C(C)O)C1Cc2cc3cc(OC4CC(OC5CC(O)C(O)C(C)O5)C(O)C(C)O4)c(C)c(O)c3c(O)c2C(=O)C1OC1CC(OC2CC(OC3CC(C)(O)C(O)C(C)O3)C(O)C(C)O2)C(O)C(C)O1` (stereo not drawn) [YL-C106], the log partition coefficient (logP) in “log P” (Table 2), in “log P” (Table 3) and in the data set “log P” (Table 4) was 3.3 throughout. The GI50 came out at 236 nM in the data set with PC3 [1] and 99 nM in the data set on TC32. Moreover, the CL in data set [2] (Table 3) and in data set [2] (Table 4) was 0.317 mL/min/kg in each case. For the same compound, the “PK Improvement” value in data set [2] (Table 4) was 83.1. The clearance in data set [2] was 0.317 mL/min/kg. For the same compound, the IC50 in the data set on PC3 [3] (setting [4]) worked out at 202 nM; in the data set with PC3 [3] (setting [5]) it was 202 nM; in the data set on PC3 [3] (setting [6]), 202 nM; in the data set on TC32 cells (setting [7]), 17.2 nM; in the data set with TC32 cells (setting [8]), 17 nM; in the data set with TC32 cells (setting [9]) it was 17.2 nM.
In the case of `COC(C(=NOCCNC(=O)c1[nH]c2ccc(Cl)cc2c1-c1ccnn1C)C(O)C(C)O)C1Cc2cc3cc(OC4CC(OC5CC(O)C(O)C(C)O5)C(O)C(C)O4)c(C)c(O)c3c(O)c2C(=O)C1OC1CC(OC2CC(OC3CC(C)(O)C(O)C(C)O3)C(O)C(C)O2)C(O)C(C)O1` (stereo not drawn) [YL-C104], in “log P” (Table 2), the logP worked out at 1.77. For the same compound, the results for the 50% growth inhibitory concentration (GI50) in the data set on PC3 [1] and in the data set with TC32 were 133 nM and 34 nM, respectively. For the same compound, the clearance in data set [2] was 0.517 mL/min/kg. Also, the half-inhibitory concentration (IC50) turned out to be 23 nM in the data set with PC3 [3] (setting [4]) and 5.63 nM with TC32 cells (setting [7]).
In the case of `COC(C(=NOCCNC(=O)c1[nH]c2ccc(Cl)cc2c1-c1ccccc1)C(O)C(C)O)C1Cc2cc3cc(OC4CC(OC5CC(O)C(O)C(C)O5)C(O)C(C)O4)c(C)c(O)c3c(O)c2C(=O)C1OC1CC(OC2CC(OC3CC(C)(O)C(O)C(C)O3)C(O)C(C)O2)C(O)C(C)O1` (stereo not drawn) [YL-B176], the logP came to 3.49 in “log P” (Table 2), 3.49 in the data set “log P” (Table 3) and 3.5 in the data set “log P” (Table 4). Further, the GI50 came out at 304 nM in the data set on PC3 [1] and 117 nM with TC32. For the same compound, the CL in data set [2] (Table 3) and in data set [2] (Table 4) was 0.35 mL/min/kg in each case. Moreover, the “PK Improvement” value in data set [2] (Table 4) was 75.1. Moreover, in data set [2], the clearance was 0.35 mL/min/kg. Further, the half-inhibitory concentration (IC50) in the data set on PC3 [3] (setting [4]) is 178 nM; in the data set on PC3 [3] (setting [5]), 178 nM; in the data set on PC3 [3] (setting [6]), 178 nM; in the data set on TC32 cells (setting [7]) it was 13.9 nM; in the data set with TC32 cells (setting [8]) it was 13.9 nM; with TC32 cells (setting [9]) it was 13.9 nM.
In turn, `CO[C@H](C(=NOCCNC(=O)c1[nH]c2ccc(Cl)cc2c1-c1cnoc1)[C@@H](O)[C@@H](C)O)[C@@H]1Cc2cc3cc(O[C@H]4C[C@@H](O[C@H]5C[C@@H](O)[C@H](O)[C@@H](C)O5)[C@H](O)[C@@H](C)O4)c(C)c(O)c3c(O)c2C(=O)[C@H]1O[C@H]1C[C@@H](O[C@H]2C[C@@H](O[C@H]3C[C@](C)(O)[C@H](O)[C@@H](C)O3)[C@@H](O)[C@@H](C)O2)[C@H](O)[C@@H](C)O1` [YL-C108] registered a logP in the data set “log P” (Table 2) of 1.44. Also, the concentration for 50% growth inhibition (GI50) was 126 nM in the data set on PC3 [1] and 34 nM with TC32. In data set [2], this compound had a clearance of 0.4 mL/min/kg. For the same compound, the values for the half-maximal inhibitory concentration (IC50) in the data set with PC3 [3] (setting [4]) and in the data set with TC32 cells (setting [7]) were 40.3 nM and 6.12 nM, respectively.
In “log P” (Table 2), `COC(C(=NOCCNC(=O)c1[nH]c2ccc(O)cc2c1-c1ccc(Cl)cc1)C(O)C(C)O)C1Cc2cc3cc(OC4CC(OC5CC(O)C(O)C(C)O5)C(O)C(C)O4)c(C)c(O)c3c(O)c2C(=O)C1OC1CC(OC2CC(OC3CC(C)(O)C(O)C(C)O3)C(O)C(C)O2)C(O)C(C)O1` (stereo not drawn) [YL-C120] returned a logP of 3.04. Besides, the 50% growth inhibitory concentration (GI50) in the data set on PC3 [1] is 66 nM; in the data set on TC32 it was 36 nM. The same compound showed a clearance in data set [2] of 0.417 mL/min/kg. Moreover, the IC50 was found to be 31.4 nM in the data set with PC3 [3] (setting [4]) and 7.6 nM in the data set on TC32 cells (setting [7]).
In the case of `CO[C@H](C(=NOCCNC(=O)c1[nH]c2ccc(Cl)cc2c1-c1ccc(Cl)cc1)[C@@H](O)[C@@H](C)O)[C@@H]1Cc2cc3cc(O[C@H]4C[C@@H](O[C@H]5C[C@@H](O)[C@H](O)[C@@H](C)O5)[C@H](O)[C@@H](C)O4)c(C)c(O)c3c(O)c2C(=O)[C@H]1O[C@H]1C[C@@H](O[C@H]2C[C@@H](O[C@H]3C[C@](C)(O)[C@H](O)[C@@H](C)O3)[C@@H](O)[C@@H](C)O2)[C@H](O)[C@@H](C)O1` [YL-C82], the logP in “log P” (Table 2) turned out to be 4.21; in the data set “log P” (Table 3), 4.21; in “log P” (Table 4), 4.2. Moreover, the figures for the GI50 in the data set on PC3 [1] and in the data set on TC32 were 805 nM and 356 nM, respectively. For the same compound, the CL in data set [2] (Table 3) and in data set [2] (Table 4) was 0.383 mL/min/kg in each case. The “PK Improvement” value in data set [2] (Table 4) is listed as 68.6. Further, the clearance in data set [2] is 0.383 mL/min/kg. The half-inhibitory concentration (IC50) came out at 515 nM with PC3 [3] (setting [4]); 218 nM with PC3 [3] (setting [5]); 515 nM with PC3 [3] (setting [6]); 20.2 nM in the data set with TC32 cells (setting [7]); 20.2 nM with TC32 cells (setting [9]); 12 nM in the data set with TC32 cells (TC-32, read-out: IC50 TC32, Table 3).
